Measurements published in patent publication US9790174B2, “Kinase inhibitors” (Respivert Limited, priority 2013, dated 2017).

How the values were obtained:
[1] = tested on: adoptive transfer colitis; assay: Adoptive transfer in mice; type: in vivo, SCID mice; settings: adoptive transfer
Procedure: On Study day 0, female Balb/C mice are terminated and spleens obtained for CD45RB^high cell isolation (Using SCID IBD cell Separation protocol). Approximately 4×10^5 cells/mL CD45RB^high cells are then injected intraperitoneally (100 μL/mouse) into female SCID animals. On study day 14, mice are weighed and randomized into treatment groups based on body weight. On Day 14, compounds are administered BID, via oral gavage, in a peanut oil vehicle at the dose levels outlined below in Tables 6a and 6b and a dose volume of 5 mL/kg. Treatment continues until study day 42, at which point the animals are necropsied 4 hours after the morning administration. The colon length and weight are recorded and used as a secondary endpoint in the study as a measurement of colon oedema. The colon is then divided into six cross-sections, four of which are used for histopathology scoring (primary endpoint) and two are homogenised for cytokine analysis. Data shown is the % inhibition of the induction window between nave animals and vehicle animals, where higher inhibition implies closer to the non-diseased, nave, phenotype.

B-Raf (V600E) = B-Raf (V600E) (Homo sapiens (Human), UniProt P15056, V600E); assay: KINOMEscan binding of kinase to standard ligand
Procedure: (§1) Kinase enzyme binding activities of compounds disclosed herein may be determined using a proprietary assay which measures active site-directed competition binding to an immobilized ligand (Fabian, M. A. et al., Nature Biotechnol., 2005, 23:329-336). These assays may be conducted by DiscoverX (formerly Ambit; San Diego, Calif.). The percentage inhibition produced by incubation with a test compound may be calculated relative to the non-inhibited control.

B-Raf = B-Raf (Homo sapiens (Human), UniProt P15056); assay: KINOMEscan binding of kinase to standard ligand
Procedure: as §1

TNBS-induced colitis = TNBS-induced colitis in mice; type: in vivo, BDF1 mice; settings: conducted over 2 days; oral
Procedure: Non-fasted, 10-12 week old, male BDF1 mice are dosed by oral gavage twice daily with either vehicle (5 mL/kg), reference item (Budesonide 2.5 mg/kg) or test compound (1 or 5 mg/kg) one day before (Day −1) stimulation of the inflammatory response by treatment with 2,4,6-trinitrobenzenesulphonic acid (TNBS) (15 mg/mL in 50% ethanol/50% saline). On Day 0 of the study TNBS (200 μL) is administered intra-colonically via a plastic catheter with BID dosing of the vehicle, reference or test compound continuing for 2 or 4 days. During the study, animals are weighed every day and stool observations are made and recorded as a score, based on stool consistency. At the time of sacrifice on Day 2 (or Day 4), the large intestine is removed and the length and weight recorded. Sections of the colon are taken for histopathology scoring to determine disease severity.

non-mutant kinases = assay: KinomeScan selectivity scores; type: binding; settings: for number of individual kinase hits S(1): % Ctrl <1; for number of individual kinase hits S(10): % Ctrl <10; for number of individual kinase hits S(35): % Ctrl <35
Procedure: These assays may be conducted by DiscoverX (formerly Ambit; San Diego, Calif.). The percentage inhibition produced by incubation with a test compound may be calculated relative to the non-inhibited control.

[2] = tested on: endotoxin-induced uveitis; assay: Endotoxin-induced uveitis in rats; type: in vivo, Lewis rats; settings: rats treated with intravitreal endotoxin LPS
Procedure: Male, Lewis rats (6-8 weeks old, Charles River UK Limited) are housed in cages of 3 at 19-21° C. with a 12 h light/dark cycle (07:00/19:00) and fed a standard diet of rodent chow and water ad libitum. Non-fasted rats are weighed, individually identified on the tail with a permanent marker, and receive a single intravitreal administration into the right vitreous humor (5 μL dose volume) of 100 ng/animal of LPS (Escherichia coli 0111:B4 prepared in PBS, Sigma Aldrich, UK) using a 32-gauge needle. Untreated rats are injected with PBS. […] Following euthanasia, the right eye of each animal is enucleated and dissected into front (anterior) and back (posterior) sections around the lens. Each section is weighed and homogenised in 500 μL of sterile phosphate buffered saline followed by 20 minutes centrifugation at 12000 rpm at 4° C.

Chain of B-Raf (P15056 whole entry): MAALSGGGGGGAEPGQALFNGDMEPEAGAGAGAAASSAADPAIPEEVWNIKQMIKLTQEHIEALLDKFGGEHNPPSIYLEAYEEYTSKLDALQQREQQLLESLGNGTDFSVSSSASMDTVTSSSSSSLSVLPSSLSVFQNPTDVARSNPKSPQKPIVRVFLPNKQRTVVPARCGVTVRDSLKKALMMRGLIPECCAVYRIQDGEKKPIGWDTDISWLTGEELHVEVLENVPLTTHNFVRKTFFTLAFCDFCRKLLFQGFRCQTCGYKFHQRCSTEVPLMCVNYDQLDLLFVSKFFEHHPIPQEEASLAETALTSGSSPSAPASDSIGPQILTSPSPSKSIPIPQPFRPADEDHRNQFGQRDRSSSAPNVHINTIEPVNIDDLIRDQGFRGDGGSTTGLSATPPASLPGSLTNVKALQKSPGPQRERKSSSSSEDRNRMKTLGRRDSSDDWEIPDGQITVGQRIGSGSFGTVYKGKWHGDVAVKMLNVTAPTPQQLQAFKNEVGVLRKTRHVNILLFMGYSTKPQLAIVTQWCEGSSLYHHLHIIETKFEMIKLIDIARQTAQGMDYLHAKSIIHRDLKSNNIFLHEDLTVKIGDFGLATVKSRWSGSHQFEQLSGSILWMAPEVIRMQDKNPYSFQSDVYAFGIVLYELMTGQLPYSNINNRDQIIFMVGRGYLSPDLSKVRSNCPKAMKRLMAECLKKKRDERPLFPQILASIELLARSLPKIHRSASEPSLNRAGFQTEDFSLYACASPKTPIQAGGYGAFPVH
Chain of B-Raf (V600E) (P15056 whole entry V600E): as the sequence (P15056 whole entry) above, with V600E counted along it

COCCOCCOCCNC(=O)c1cc(Nc2cc(Oc3ccc(NC(=O)Nc4cc(C(C)(C)C)cc(NS(C)(=O)=O)c4OC)c4ccccc34)ccn2)cc(OC)c1 [Example 3, 3-((4-((4-(3-(5-(tert-Butyl)-2-methoxy-3-(methylsulfonamido)phenyl)ureido)naphthalen-1-yl)oxy)pyridin-2-yl)amino)-5-methoxy-N-(2-(2-(2-methoxyethoxy)ethoxy)ethyl)benzamide]
activity in T cell driven model of colonic inflammation (ratios of colon weight to length) [1]: displayed significant activity
effect on the binding of B-Raf (V600E) to its standard ligand (B-Raf (V600E)): did not have any significant effect
effect on the binding of B-Raf to its standard ligand (B-Raf): did not have any significant effect
activity in TNBS model of colonic inflammation (histopathology analysis) (TNBS-induced colitis): displayed substantial activity
number of individual kinase hits S(1) (non-mutant kinases; 50 nM): 0
number of individual kinase hits S(10) (non-mutant kinases; 50 nM): 9
number of individual kinase hits S(35) (non-mutant kinases; 50 nM): 36
number of individual kinase hits S(1) (non-mutant kinases; 500 nM): 18
number of individual kinase hits S(10) (non-mutant kinases; 500 nM): 59
number of individual kinase hits S(35) (non-mutant kinases; 500 nM): 93
selectivity compared to the Reference Compound (non-mutant kinases; evidenced by lower selectivity scores): substantially improved selectivities

CNC(=O)c1cc(C(C)(C)C)cc(NC(=O)Nc2ccc(Oc3ccnc(Nc4cc(OC)cc(OCCOCCOCCOC)c4)c3)c3ccccc23)c1OC [Example 29, 5-(tert-Butyl)-2-methoxy-3-(3-(4-((2-((3-methoxy-5-(2-(2-(2-methoxyethoxy)ethoxy)-ethoxy)phenyl)amino)pyridin-4-yl)oxy)naphthalen-1-yl)ureido)-N-methylbenzamide]
cytokine levels in anterior and posterior segments of the eyes [2]: significantly reduced cytokine levels

COCCOCCOCCOc1cc(Nc2cc(Oc3ccc(NC(=O)Nc4cc(C(C)(C)C)cc(C(N)=O)c4OC)c4ccccc34)ccn2)cc(OC)c1 [Example 34, 5-(tert-Butyl)-2-methoxy-3-(3-(4-((2-((3-methoxy-5-(2-(2-(2-methoxyethoxy)ethoxy)ethoxy)phenyl)amino)pyridin-4-yl)oxy)naphthalen-1-yl)ureido)benzamide]
activity in TNBS model of colonic inflammation (histopathology analysis) (TNBS-induced colitis): displayed substantial activity

COc1cc(Nc2cc(Oc3ccc(NC(=O)Nc4cc(C(C)(C)C)cc(NS(C)(=O)=O)c4OC)c4ccccc34)ccn2)cc(C(=O)NCCCN2CCOCC2)c1 [Example 66, 3-((4-((4-(3-(5-(tert-Butyl)-2-methoxy-3-(methylsulfonamido)phenyl)ureido)naphthalen-1-yl)oxy)pyridin-2-yl)amino)-5-methoxy-N-(3-morpholinopropyl)benzamide]
cytokine levels in anterior and posterior segments of the eyes [2]: significantly reduced cytokine levels

COc1cc(Nc2cc(Oc3ccc(NC(=O)Nc4cc(C(C)(C)C)cc(NS(C)(=O)=O)c4OC)c4ccccc34)ccn2)cc(C(=O)NCCN2CCN(C)CC2)c1 [Example 79, 3-((4-((4-(3-(5-(tert-Butyl)-2-methoxy-3-(methylsulfonamido)phenyl)ureido)naphthalen-1-yl)oxy)pyridin-2-yl)amino)-5-methoxy-N-(2-(4-methylpiperazin-1-yl)ethyl)benzamide]
activity in TNBS model of colonic inflammation (histopathology analysis) (TNBS-induced colitis): displayed substantial activity
